Measurements taken from patent US10035810B2, “5,6-dihydro-4H-benzo[b]thieno-[2,3-d]azepine derivative” (PULMOCIDE LIMITED, priority 2014, dated 2018).

System: HEp2 cells
Experiment: Cell viability: resazurin assay
Type: cell-based, human
Details: incubation with compound
Procedure: Cell Viability: Resazurin Assay
HEp2 cells were seeded in 384-well plates (10^3/well/50 μL; BD Falcon Ref 353962) in FBS DMEM (5%, containing 2 mM L-glutamine and 1 mM sodium pyruvate) one day before experimentation. Serum-free DMEM (50 μL) was added to test wells while for control wells the media was removed and sterile water (100 μL) was added. Compound (I) (0.5 μL DMSO solution) was added to give a final DMSO concentration of 0.5%. Hep2 cells were incubated with each test compound for 5 days (37° C./5% CO2 in 5% FBS) and then resazurin stock solution (5 μL; 0.03%) was added to each well and the plate incubated for a further 6 hr (37° C./5% CO2). The fluorescence of each well at 545 nm (excitation) and 590 nm (emission) was determined using a multi-scanner (Clariostar: BMG Labtech). The percentage loss of cell viability was calculated for each well relative to vehicle (0.5% DMSO) treatment.
Any apparent increase in cell viability associated with test compound treatment relative to vehicle is consequently tabulated as a negative percentage. Where appropriate, a CC50 value was calculated from the concentration-response curve generated for Compound (I).

Cc1cnc(N2CC3(CCOCC3)C2)c(C(=O)Nc2ccc(C(=O)N3CCc4cc(C(=O)Nc5c(C)cccc5F)sc4-c4ccccc43)cc2)c1 [Compound (I), N-(2-fluoro-6-methylphenyl)-6-(4-(5-methyl-2-(7-oxa-2-azaspiro[3.5]nonan-2-yl)nicotinamido)benzoyl)-5,6-dihydro-4H-benzo[b]thieno[2,3-d]azepine-2-carboxamide]
Effect on cell viability (in words): No effect on cell viability
